“And” between values parts separate entries of the source, which are not always exact repeats. Equal entries are not always repeated. Inconclusive results and toxic doses are left out. Rule for the calls: active = survival T/C of 150% or more; inactive = T/C below 125% in these data.
Test system: BDF1 mice, L1210 terephthalanilide-resistant leukemia ip, survival T/C
Experiment: NCI In Vivo Anticancer Drug Screen. Data for tumor model L1210 Leukemia resistant to A Terephthalanilide; NSC 38280 (intraperitoneal) in B6D2F1 (BDF1) mice
Settings: endpoint: mean survival time, higher = longer survival
Experimental: The antitumor activity of compounds was measured in mice bearing transplantable tumors. Survival or tumor size were measured and the results are expressed as the measurement made in the treated group (T) divided by the measurement made in the vehicle treated control group (C). The tumor model used in this assay is L1210 Leukemia resistant to A Terephthalanilide; NSC 38280 (intraperitoneal) in B6D2F1 (BDF1) mice

[1] = dose: 25.0 mg/kg/injection, schedule: Q01DX Z (ip), vehicle: carboxymethylcellulose (CMC)
[2] = dose: 25.0 mg/kg/injection, schedule: Q01DX010 (ip), vehicle: saline
[3] = dose: 50.0 mg/kg/injection, schedule: Q01DX010 (ip), vehicle: saline
[4] = dose: 100.0 mg/kg/injection, schedule: Q01DX010 (ip), vehicle: saline
[5] = dose: 16.0 mg/kg/injection, schedule: Q01DX010 (ip), vehicle: saline

Measured: T/C

S=c1nc[nH]c2nc[nH]c12
inactive: dose: 2.5 mg/kg/injection, schedule: Q01DX Z (ip), vehicle: carboxymethylcellulose (CMC) 120 % of control | dose: 62.5 mg/kg/injection, schedule: Q01DX Z (ip), vehicle: carboxymethylcellulose (CMC) 120 % of control | dose: 100.0 mg/kg/injection, schedule: Q01DX Z (ip), vehicle: carboxymethylcellulose (CMC) 107 % of control
active: dose: 7.5 mg/kg/injection, schedule: Q01DX Z (ip), vehicle: carboxymethylcellulose (CMC) 165 % of control | dose: 10.0 mg/kg/injection, schedule: Q01DX Z (ip), vehicle: carboxymethylcellulose (CMC) 172 % of control | dose: 12.5 mg/kg/injection, schedule: Q01DX Z (ip), vehicle: carboxymethylcellulose (CMC) 156 % of control | [1] 152 % of control

CC/C(=C(/CC)c1ccc(O)cc1)c1ccc(O)cc1
inactive: dose: 12.5 mg/kg/injection, schedule: Q01DX010 (sc), vehicle: steriod suspending solution 96 % of control and 102 % of control | dose: 25.0 mg/kg/injection, schedule: Q01DX010 (sc), vehicle: steriod suspending solution 89 % of control and 102 % of control | dose: 50.0 mg/kg/injection, schedule: Q01DX010 (sc), vehicle: steriod suspending solution 102 % of control and 103 % of control | dose: 100.0 mg/kg/injection, schedule: Q01DX010 (sc), vehicle: steriod suspending solution 96 % of control and 98 % of control

O=c1c(O)cccc2cc(O)c(O)c(O)c12
inactive: [2] 98 % of control | [3] 93 % of control | [4] 89 % of control

C=CC(CN1CC1)OC(C)=O (centres undefined)
inactive: dose: 2.0 mg/kg/injection, schedule: Q01DX010 (ip), vehicle: saline 101 % of control | dose: 4.0 mg/kg/injection, schedule: Q01DX010 (ip), vehicle: saline 119 % of control | [5] 114 % of control

O=C(Nc1ccc(C2=NCCN2)cc1)c1cccc(C(=O)Nc2ccc(C3=NCCN3)cc2)c1
inactive: dose: 8.0 mg/kg/injection, schedule: Q01DX010 (ip), vehicle: saline 94 % of control and 101 % of control | [5] 105 % of control and 110 % of control | dose: 32.0 mg/kg/injection, schedule: Q01DX010 (ip), vehicle: saline 106 % of control and 110 % of control | dose: 64.0 mg/kg/injection, schedule: Q01DX010 (ip), vehicle: saline 120 % of control

NC12CC3CC(CC(C3)C1)C2
inactive: [2] 108 % of control | [3] 106 % of control | [4] 101 % of control

O=C(Nc1ccc(C2=NCCCN2)cc1)c1ccc(C(=O)Nc2ccc(C3=NCCCN3)cc2)cc1
inactive: dose: 1.0 mg/kg/injection, schedule: Q01DX010 (ip), vehicle: other 113 % of control and 114 % of control | dose: 2.0 mg/kg/injection, schedule: Q01DX010 (ip), vehicle: other 116 % of control | dose: 4.0 mg/kg/injection, schedule: Q01DX010 (ip), vehicle: other 123 % of control and 120 % of control | dose: 8.0 mg/kg/injection, schedule: Q01DX010 (ip), vehicle: other 90 % of control and 95 % of control

O=C(Nc1ccc(C2=NCCN2)cc1)c1ccc(C(=O)Nc2ccc(C3=NCCN3)cc2)c(F)c1
inactive: dose: 22.5 mg/kg/injection, schedule: Q01DX010 (ip), vehicle: saline 100 % of control and 101 % of control | dose: 45.0 mg/kg/injection, schedule: Q01DX010 (ip), vehicle: saline 101 % of control and 102 % of control | dose: 90.0 mg/kg/injection, schedule: Q01DX010 (ip), vehicle: saline 103 % of control and 106 % of control | dose: 180.0 mg/kg/injection, schedule: Q01DX010 (ip), vehicle: saline 100 % of control

Nc1ncnc2[nH]ncc12
inactive: dose: 1.5 mg/kg/injection, schedule: Q01DX010 (ip), vehicle: saline 103 % of control and 105 % of control | dose: 3.0 mg/kg/injection, schedule: Q01DX010 (ip), vehicle: saline 103 % of control and 108 % of control | dose: 6.0 mg/kg/injection, schedule: Q01DX010 (ip), vehicle: saline 107 % of control and 111 % of control | dose: 12.0 mg/kg/injection, schedule: Q01DX010 (ip), vehicle: saline 102 % of control | [1] 90 % of control

CS(=O)(=O)OCCCl
inactive: dose: 18.8 mg/kg/injection, schedule: Q01DX010 (ip), vehicle: saline 99 % of control and 108 % of control | dose: 37.5 mg/kg/injection, schedule: Q01DX010 (ip), vehicle: saline 90 % of control and 103 % of control | dose: 44.0 mg/kg/injection, schedule: Q01DX Z (ip), vehicle: saline 103 % of control | dose: 75.0 mg/kg/injection, schedule: Q01DX010 (ip), vehicle: saline 107 % of control and 108 % of control | dose: 87.5 mg/kg/injection, schedule: Q01DX Z (ip), vehicle: saline 115 % of control | dose: 150.0 mg/kg/injection, schedule: Q01DX010 (ip), vehicle: saline 89 % of control | dose: 175.0 mg/kg/injection, schedule: Q01DX Z (ip), vehicle: saline 119 % of control

Source: PubChem BioAssay AID282 (DTP/NCI, 2004)
